Measurements taken from patent US8039482B2, “Composition of solifenacin or salt thereof for use in solid formulation” (Astellas Pharma Inc., priority 2004, dated 2011).
Read-outs that look alike come from different tables or passages of the source.

Key:
[1] = assay type: physicochemical; settings: for related substances (individual maximum values): 40° C. and 75% RH
Method: The amounts of degradation products over time under storage were measured by high-performance liquid chromatography. The maximum amount of the individual degradation products is shown. […] Therefore, the main cause of the degradation of the active pharmaceutical ingredient over time was presumably amorphous solifenacin succinate generated in the manufacturing process of the formulation.
Results of the stability of crystalline product and amorphous product of solifenacin succinate • Storage conditions: 40° C. and 75% RH • Packaging form: glass vial • Test items: related substances (individual maximum values)

muscarine M3 receptors = muscarine M3 receptors (Homo sapiens, UniProt P20309); settings: reported in patent reference 1; cited from earlier work
Chain of muscarine M3 receptors (P20309 whole entry): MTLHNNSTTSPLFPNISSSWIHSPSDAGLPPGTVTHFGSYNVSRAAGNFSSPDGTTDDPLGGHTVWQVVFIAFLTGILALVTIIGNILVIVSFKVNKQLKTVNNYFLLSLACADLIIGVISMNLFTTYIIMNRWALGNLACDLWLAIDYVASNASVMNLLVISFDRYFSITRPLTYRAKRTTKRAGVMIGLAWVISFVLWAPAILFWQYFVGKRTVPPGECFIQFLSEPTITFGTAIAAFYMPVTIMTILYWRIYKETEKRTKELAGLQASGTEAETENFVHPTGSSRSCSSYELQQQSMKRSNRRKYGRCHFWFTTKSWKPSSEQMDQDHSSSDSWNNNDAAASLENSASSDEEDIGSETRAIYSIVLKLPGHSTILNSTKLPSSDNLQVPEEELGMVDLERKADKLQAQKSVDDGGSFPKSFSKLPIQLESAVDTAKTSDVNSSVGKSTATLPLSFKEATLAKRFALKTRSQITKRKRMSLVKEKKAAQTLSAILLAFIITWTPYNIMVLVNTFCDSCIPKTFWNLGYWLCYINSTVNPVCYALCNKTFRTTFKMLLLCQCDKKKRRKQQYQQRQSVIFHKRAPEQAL

Row | related substances (individual maximum values) ([1]; Open glass vial, one-week later) [%] | related substances (individual maximum values) ([1]; Open glass vial, two-week later) [%] | related substances (individual maximum values) ([1]; Sealed glass vial, one-week later) [%] | related substances (individual maximum values) ([1]; Sealed glass vial, two-week later) [%] | Compound | stability under storage (in words) [1] | antagonistic action against muscarine M3 receptors (in words) (muscarine M3 receptors)
1 | 0.16 | 0.16 | 0.03 | 0.05 | O=C(O[C@H]1CN2CCC1CC2)N1CCc2ccccc2[C@@H]1c1ccccc1 [Amorphous product, solifenacin succinate] | poorer than that of the crystalline product | 
2 |  |  |  |  | O=C(O[C@H]1CN2CCC1CC2)N1CCc2ccccc2[C@@H]1c1ccccc1 [solifenacin, (1R,3′R)-3′-quinuclidinyl 1-phenyl-1,2,3,4-tetrahydro-2-isoquinoline carboxylate] |  | excellent selective antagonistic action
